≈ marks a conversion by molar mass, not a printed value. Read-outs that look alike come from different tables or passages of the source.
Legend:
[1] = system: Staphylococcus epidermidis IFO 12993; assay: in vitro minimum inhibitory concentration (MIC), agar streak method; type: cell-based; conditions: IFO12993
[2] = system: Bacillus subtilis IAM 1027; assay: as above; type: cell-based; conditions: IAM1027
[3] = system: Staphylococcus aureus 209P IAM 1011; assay: as above; type: cell-based
[4] = system: Klebsiella pheumonia IFO 3512; assay: as above; type: cell-based; conditions: IFO3512
[5] = system: Micrococcus flavus ATCC 10240; assay: as above; type: cell-based; conditions: ATCC10240
P388 leukemia = assay: antitumour activity against P388 leukemia in mice, survival time; type: in vivo, male CDF1 mice; conditions: i.p., days 1, 5 and 9; for Mean survival: control 10.6 ± 0.6
Experimental: 4-Deoxy-aclacinomycin A obtained in the present invention was tested against P388 leukemia in mice. When male CDF1 mice (5 week old) were inoculated with 10^6 of P388 leukemia cells intraperitoneally and the antibiotic was administered through the same route on days 1, 5 and 9, the survival time of the treated mice was prolonged as shown in Table 6.

[6] = system: Escherichia coli K-12 IAM 1264; assay: in vitro minimum inhibitory concentration (MIC), agar streak method; type: cell-based; conditions: IAM1264
[7] = toxicity (survival of treated mice); type: in vivo
Experimental: All the mice treated with 100 mg/kg of 4-deoxy-aclacinomycin A, i.p., survived more than 7 days.

[8] = system: Pseudomonas aeruginosa IFO 12689; assay: in vitro minimum inhibitory concentration (MIC), agar streak method; type: cell-based; conditions: IFO12689
Sarcina lutea IAM 1009 = assay: as above; type: cell-based; conditions: Micrococcus luteus, IAM1009
[9] = system: Proteus vulgaris IAM 1025; assay: as above; type: cell-based; conditions: IAM1025

## CC[C@@]1(O)C[C@H](O[C@H]2C[C@H](N(C)C)[C@H](O[C@H]3C[C@H](O)[C@H](O[C@H]4CCC(=O)[C@H](C)O4)[C@H](C)O3)[C@H](C)O2)c2c(cc3c(c2O)C(=O)c2ccccc2C3=O)[C@H]1C(=O)OC [4-Deoxy-aclacinomycin A, 4-deoxy-aclacinomycin A]
[1]; Staphylococcus epidermidis IFO 12993, read-out: MIC
  MIC: 0.78 µg/mL (≈ 0.98 µM)
[2]; Bacillus subtilis IAM 1027, read-out: MIC
  MIC: 0.39 µg/mL (≈ 0.49 µM)
[3]; Staphylococcus aureus 209P IAM 1011, read-out: MIC
  MIC: 0.78 µg/mL (≈ 0.98 µM)
[4]; Klebsiella pheumonia IFO 3512, read-out: MIC
  MIC: > 100 µg/mL
[5]; Micrococcus flavus ATCC 10240, read-out: MIC
  MIC: 0.19 µg/mL (≈ 0.239 µM)
P388 leukemia; total dose 5.6 mg/Kg
  Increase in life span (%): 8%
  Mean survival: 11.5 ± 0.5 days
P388 leukemia; total dose 11.3 mg/Kg
  Increase in life span (%): 18%
  Mean survival: 12.5 ± 0.5 days
P388 leukemia; total dose 22.5 mg/Kg
  Increase in life span (%): 23%
  Mean survival: 13.0 ± 0.0 days
P388 leukemia; total dose 45 mg/Kg
  Increase in life span (%): 27%
  Mean survival: 13.5 ± 0.5 days
P388 leukemia; total dose 90 mg/Kg
  Increase in life span (%): 57%
  Mean survival: 16.5 ± 0.5 days
[6]; Escherichia coli K-12 IAM 1264, read-out: MIC
  MIC: > 100 µg/mL
[7]; 100 mg/kg, i.p.
  survival of all the mice treated: more than 7 days
[7]; statement in words
  toxicity as compared with that of aclacinomycin A: very low as compared with that of aclacinomycin A
[8]; Pseudomonas aeruginosa IFO 12689, read-out: MIC
  MIC: > 100 µg/mL
Sarcina lutea IAM 1009; Sarcina lutea IAM 1009, read-out: MIC
  MIC: 0.19 µg/mL (≈ 0.239 µM)
[9]; Proteus vulgaris IAM 1025, read-out: MIC
  MIC: > 100 µg/mL

## CC[C@@]1(O)C[C@H](O[C@H]2C[C@H](N(C)C)[C@H](O[C@H]3C[C@@H]4OC5CC(=O)C(C)OC5O[C@@H]4[C@H](C)O3)[C@H](C)O2)c2c(cc3c(c2O)C(=O)c2ccccc2C3=O)[C@H]1C(=O)OC (stereo partly drawn) [4-Deoxy-aclacinomycin B, 4-deoxy-aclacinomycin B]
[1]; Staphylococcus epidermidis
  MIC: 3.13 µg/mL (≈ 3.94 µM)
[2]; Bacillus subtilis
  MIC: 6.25 µg/mL (≈ 7.87 µM)
[3]; Staphylococcus aureus
  MIC: 3.13 µg/mL (≈ 3.94 µM)
[4]; Klebsiella
  MIC: > 100 µg/mL
[5]; Micrococcus flavus
  MIC: 0.39 µg/mL (≈ 0.491 µM)
[6]; Escherichia coli
  MIC: > 100 µg/mL
[8]; Pseudomonas aeruginosa
  MIC: > 100 µg/mL
Sarcina lutea IAM 1009
  MIC: 0.39 µg/mL (≈ 0.491 µM)
[9]; Proteus vulgaris
  MIC: > 100 µg/mL
